{"source": "ChEMBL document CHEMBL1201862", "about": "“PubChem BioAssay data set” (2004)", "key": {"Galanin receptor type 2": {"target": "Galanin receptor type 2 (Homo sapiens, UniProt O43603)", "sequence (O43603 whole entry)": "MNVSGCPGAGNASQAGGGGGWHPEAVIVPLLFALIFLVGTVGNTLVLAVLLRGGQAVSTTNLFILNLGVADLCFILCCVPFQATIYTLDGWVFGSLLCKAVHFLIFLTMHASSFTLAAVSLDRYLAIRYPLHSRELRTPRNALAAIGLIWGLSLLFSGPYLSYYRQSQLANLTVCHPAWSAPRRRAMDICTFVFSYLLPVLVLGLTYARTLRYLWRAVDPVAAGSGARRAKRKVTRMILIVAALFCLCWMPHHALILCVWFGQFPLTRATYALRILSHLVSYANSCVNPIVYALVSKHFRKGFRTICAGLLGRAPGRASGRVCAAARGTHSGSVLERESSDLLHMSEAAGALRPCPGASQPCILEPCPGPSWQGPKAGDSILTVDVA", "assay": "Dose Response cell-based high-throughput screening assay to identify antagonists of galanin receptor 2 (GALR2). [Related pubchem assays: 828, 866 ]", "assay_type": "functional"}, "[1]": {"assay": "growth suppression of PTEN-null colon cells, dose response, cell-based, HCT116 PTEN knockout (AID 1047);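 note: HCT116 colon tumor cells with PTEN knocked out; cells exposed to compound for 60 hours before readout; potency for loss of cell viability measured by luminescence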", "assay_type": "functional"}, "[2]": {"assay": "growth suppression of beta-catenin-knockout colon cells, dose response, cell-based, HCT116, human colon tumor (AID 1045);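 note: HCT116 colon tumor cells with beta catenin knocked out; cells exposed to compound for 60 hours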", "assay_type": "functional"}, "[3]": {"target": "T1, Mannose-6-phosphate isomerase (Homo sapiens, UniProt P34949)", "T1 sequence (P34949 whole entry)": "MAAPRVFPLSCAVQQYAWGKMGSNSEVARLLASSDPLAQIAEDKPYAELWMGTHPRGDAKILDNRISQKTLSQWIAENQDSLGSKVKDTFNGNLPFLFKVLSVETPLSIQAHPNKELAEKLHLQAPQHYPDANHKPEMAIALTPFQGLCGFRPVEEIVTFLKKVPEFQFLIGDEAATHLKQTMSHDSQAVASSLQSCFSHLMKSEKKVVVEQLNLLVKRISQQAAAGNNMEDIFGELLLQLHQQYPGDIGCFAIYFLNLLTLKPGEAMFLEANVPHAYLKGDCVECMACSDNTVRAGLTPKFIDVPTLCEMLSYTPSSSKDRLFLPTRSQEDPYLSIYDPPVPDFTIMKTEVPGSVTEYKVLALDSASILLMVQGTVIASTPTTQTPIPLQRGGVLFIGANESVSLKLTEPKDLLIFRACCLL", "assay": "human PMI inhibitors, high substrate, primary screen, biochemical, fluorescence intensity, high mannose 6-phosphate (AID 1220)"}, "Nonstructural protein 1": {"target": "Nonstructural protein 1 (Influenza A virus, UniProt Q194T2)", "sequence (Q194T2 whole entry)": "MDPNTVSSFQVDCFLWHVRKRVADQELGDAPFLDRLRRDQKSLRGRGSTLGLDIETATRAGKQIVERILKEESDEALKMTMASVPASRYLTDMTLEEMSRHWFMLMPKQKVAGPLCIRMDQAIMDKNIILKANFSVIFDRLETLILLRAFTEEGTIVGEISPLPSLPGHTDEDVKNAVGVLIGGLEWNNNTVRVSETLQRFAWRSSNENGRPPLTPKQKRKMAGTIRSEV", "assay_type": "functional, Influenza A virus (A/California/07/2009(H1N1))"}, "Vero": {"tested_on": "Vero", "assay": "Vero cell cytotoxicity, cytotoxicity control for flavivirus capping enzyme inhibitors (AID 588742)", "assay_type": "functional", "conditions": "Chlorocebus sabaeus"}, "[4]": {"assay": "HeLa cell cytotoxicity, dose response, cytotoxicity control for MgcRacGAP inhibitor project (AID 624300)", "assay_type": "functional"}, "[5]": {"target": "T2, Rac GTPase-activating protein 1 (Homo sapiens, UniProt Q9H0H5)", "T2 sequence (Q9H0H5 whole entry)": "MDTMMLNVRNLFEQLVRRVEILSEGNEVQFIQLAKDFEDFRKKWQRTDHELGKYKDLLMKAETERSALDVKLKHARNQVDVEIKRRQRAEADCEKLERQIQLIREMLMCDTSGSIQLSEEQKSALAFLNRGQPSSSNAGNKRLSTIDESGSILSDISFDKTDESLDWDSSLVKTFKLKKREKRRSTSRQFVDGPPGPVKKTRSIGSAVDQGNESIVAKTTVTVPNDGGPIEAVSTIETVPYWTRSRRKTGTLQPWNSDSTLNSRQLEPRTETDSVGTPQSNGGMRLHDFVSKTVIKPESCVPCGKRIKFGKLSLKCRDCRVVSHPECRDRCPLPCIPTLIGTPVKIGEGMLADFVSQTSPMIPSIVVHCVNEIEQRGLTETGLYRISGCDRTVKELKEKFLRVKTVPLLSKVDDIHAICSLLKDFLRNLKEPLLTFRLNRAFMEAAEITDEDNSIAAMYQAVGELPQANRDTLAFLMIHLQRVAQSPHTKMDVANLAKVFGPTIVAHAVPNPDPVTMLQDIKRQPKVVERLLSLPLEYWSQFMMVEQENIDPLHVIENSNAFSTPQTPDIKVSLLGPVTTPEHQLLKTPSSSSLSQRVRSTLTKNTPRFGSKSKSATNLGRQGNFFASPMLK", "assay": "MgcRacGAP GTPase-activating activity inhibitors, confirmation, biochemical, ADP Hunter fluorescence, primary and confirmatory (AID 624330)", "assay_type": "functional"}, "[6]": {"target": "T3, Histone-lysine N-methyltransferase NSD2 (Homo sapiens, UniProt O96028)", "T3 sequence (O96028 whole entry)": "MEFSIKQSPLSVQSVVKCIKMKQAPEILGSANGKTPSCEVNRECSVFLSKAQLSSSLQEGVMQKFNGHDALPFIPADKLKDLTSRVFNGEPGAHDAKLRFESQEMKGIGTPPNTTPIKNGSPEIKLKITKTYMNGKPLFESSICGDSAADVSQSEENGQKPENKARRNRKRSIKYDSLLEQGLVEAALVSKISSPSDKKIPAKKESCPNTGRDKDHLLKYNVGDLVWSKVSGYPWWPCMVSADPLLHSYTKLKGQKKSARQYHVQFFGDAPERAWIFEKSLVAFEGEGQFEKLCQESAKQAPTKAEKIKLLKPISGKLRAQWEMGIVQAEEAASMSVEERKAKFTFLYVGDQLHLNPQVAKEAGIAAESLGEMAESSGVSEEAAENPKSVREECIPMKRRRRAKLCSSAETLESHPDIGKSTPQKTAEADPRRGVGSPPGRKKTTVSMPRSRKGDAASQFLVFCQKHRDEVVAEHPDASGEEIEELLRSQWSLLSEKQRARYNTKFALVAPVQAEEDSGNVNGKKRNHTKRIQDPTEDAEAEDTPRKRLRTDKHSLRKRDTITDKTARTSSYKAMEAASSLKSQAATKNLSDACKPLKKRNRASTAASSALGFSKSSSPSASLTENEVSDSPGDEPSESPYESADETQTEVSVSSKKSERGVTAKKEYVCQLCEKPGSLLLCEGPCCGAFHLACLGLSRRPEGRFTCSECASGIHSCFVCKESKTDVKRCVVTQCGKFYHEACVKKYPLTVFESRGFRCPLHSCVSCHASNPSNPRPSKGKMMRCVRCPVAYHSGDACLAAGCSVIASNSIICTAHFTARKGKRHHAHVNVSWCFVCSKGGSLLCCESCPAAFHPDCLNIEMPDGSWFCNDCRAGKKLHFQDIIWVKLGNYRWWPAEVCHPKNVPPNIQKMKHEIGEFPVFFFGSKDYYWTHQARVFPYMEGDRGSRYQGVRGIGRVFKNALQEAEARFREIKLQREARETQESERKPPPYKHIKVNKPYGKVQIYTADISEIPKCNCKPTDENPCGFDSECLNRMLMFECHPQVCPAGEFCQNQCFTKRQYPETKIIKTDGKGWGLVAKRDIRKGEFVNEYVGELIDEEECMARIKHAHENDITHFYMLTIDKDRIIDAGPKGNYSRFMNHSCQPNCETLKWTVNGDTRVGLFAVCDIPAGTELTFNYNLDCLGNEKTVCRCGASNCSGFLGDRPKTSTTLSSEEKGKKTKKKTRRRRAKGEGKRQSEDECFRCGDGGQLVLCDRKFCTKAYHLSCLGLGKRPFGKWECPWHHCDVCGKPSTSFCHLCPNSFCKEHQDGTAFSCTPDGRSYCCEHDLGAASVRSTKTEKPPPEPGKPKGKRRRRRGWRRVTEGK", "assay_type": "biochemical"}, "[7]": {"target": "Transitional endoplasmic reticulum ATPase (Homo sapiens, UniProt P55072, C522A)", "sequence (P55072 2-806 C522A limits assumed)": "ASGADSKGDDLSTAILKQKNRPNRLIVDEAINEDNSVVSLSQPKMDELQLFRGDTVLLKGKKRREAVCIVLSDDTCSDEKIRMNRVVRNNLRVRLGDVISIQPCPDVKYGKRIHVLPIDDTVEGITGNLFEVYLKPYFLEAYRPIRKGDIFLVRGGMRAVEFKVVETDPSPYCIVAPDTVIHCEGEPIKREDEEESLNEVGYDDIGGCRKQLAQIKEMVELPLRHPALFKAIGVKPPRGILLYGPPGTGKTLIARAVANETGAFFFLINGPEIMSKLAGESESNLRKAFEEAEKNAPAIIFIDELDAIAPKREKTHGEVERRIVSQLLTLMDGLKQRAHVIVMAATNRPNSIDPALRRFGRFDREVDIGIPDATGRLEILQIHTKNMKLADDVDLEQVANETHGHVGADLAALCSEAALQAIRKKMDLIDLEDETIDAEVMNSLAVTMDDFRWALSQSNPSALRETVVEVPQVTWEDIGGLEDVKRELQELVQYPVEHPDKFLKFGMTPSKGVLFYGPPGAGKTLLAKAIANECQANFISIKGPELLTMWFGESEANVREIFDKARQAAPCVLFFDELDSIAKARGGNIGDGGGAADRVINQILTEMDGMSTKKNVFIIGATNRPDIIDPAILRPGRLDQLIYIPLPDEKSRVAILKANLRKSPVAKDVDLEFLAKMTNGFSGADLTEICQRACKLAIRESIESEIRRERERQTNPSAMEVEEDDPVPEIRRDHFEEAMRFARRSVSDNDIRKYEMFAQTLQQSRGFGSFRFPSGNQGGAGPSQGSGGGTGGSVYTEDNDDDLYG", "assay": "Luminescence counterscreen assay for p97 inhibitors: dose response biochemical high throughput screening assay to identify inhibitors of the C522A mutant p97 ATPase: synthesized compounds. [Related pubchem assays: 1481, 1517, 1551 ]"}, "[8]": {"target": "Transitional endoplasmic reticulum ATPase (Homo sapiens, UniProt P55072)", "sequence (P55072 whole entry)": "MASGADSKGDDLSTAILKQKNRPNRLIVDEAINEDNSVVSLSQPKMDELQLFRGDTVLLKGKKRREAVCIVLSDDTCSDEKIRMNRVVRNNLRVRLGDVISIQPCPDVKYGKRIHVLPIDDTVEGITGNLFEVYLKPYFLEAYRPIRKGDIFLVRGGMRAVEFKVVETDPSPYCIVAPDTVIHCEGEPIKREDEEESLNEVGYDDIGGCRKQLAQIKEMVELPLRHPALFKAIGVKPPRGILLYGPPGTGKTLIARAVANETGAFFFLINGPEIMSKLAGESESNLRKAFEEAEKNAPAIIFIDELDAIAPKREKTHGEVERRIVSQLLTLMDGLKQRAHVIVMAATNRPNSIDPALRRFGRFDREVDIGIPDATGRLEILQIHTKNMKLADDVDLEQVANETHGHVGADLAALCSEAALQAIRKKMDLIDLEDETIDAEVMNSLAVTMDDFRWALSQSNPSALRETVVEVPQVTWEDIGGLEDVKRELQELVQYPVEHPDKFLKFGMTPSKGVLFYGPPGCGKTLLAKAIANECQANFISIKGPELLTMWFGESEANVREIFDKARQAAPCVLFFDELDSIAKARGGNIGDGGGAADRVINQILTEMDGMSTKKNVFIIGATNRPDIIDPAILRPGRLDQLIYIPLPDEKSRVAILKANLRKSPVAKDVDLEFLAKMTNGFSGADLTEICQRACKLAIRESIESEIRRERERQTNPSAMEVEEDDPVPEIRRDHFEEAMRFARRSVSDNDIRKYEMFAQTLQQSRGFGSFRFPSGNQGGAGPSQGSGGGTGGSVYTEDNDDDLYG", "assay": "Luminescence dose response biochemical high throughput screening assay for inhibitors of the p97 ATPase: synthesized compounds. [Related pubchem assays: 1481, 1517 ]"}, "[9]": {"target": "T4, Neuropeptide Y receptor type 1 (Homo sapiens, UniProt P25929)", "T4 sequence (P25929 whole entry)": "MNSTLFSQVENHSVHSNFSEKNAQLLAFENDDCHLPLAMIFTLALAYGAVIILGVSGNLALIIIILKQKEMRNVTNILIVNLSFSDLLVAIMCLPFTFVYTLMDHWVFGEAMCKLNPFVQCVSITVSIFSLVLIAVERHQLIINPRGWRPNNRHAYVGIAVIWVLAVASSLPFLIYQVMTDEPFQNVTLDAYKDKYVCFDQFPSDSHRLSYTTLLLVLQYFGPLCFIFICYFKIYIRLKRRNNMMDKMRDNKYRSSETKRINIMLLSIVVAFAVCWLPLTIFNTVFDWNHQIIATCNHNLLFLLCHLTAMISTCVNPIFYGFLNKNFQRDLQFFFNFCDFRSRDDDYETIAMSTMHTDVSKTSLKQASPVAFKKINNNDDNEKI", "assay_type": "functional"}, "[10]": {"target": "T5, Neuropeptide Y receptor type 2 (Homo sapiens, UniProt P49146)", "T5 sequence (P49146 whole entry)": "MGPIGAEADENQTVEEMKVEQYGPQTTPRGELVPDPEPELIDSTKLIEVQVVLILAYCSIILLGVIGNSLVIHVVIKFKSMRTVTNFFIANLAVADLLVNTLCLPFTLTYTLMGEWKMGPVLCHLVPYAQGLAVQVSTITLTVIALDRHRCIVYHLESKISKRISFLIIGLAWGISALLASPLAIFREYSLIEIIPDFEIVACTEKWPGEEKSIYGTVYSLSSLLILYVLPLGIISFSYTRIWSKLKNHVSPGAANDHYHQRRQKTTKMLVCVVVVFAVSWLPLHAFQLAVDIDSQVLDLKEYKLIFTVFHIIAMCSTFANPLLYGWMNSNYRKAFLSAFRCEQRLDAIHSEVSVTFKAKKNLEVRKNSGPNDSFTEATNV", "assay_type": "functional, cell-based"}, "[11]": {"target": "ATP-sensitive inward rectifier potassium channel 1 (Homo sapiens, UniProt P48048)", "sequence (P48048 whole entry)": "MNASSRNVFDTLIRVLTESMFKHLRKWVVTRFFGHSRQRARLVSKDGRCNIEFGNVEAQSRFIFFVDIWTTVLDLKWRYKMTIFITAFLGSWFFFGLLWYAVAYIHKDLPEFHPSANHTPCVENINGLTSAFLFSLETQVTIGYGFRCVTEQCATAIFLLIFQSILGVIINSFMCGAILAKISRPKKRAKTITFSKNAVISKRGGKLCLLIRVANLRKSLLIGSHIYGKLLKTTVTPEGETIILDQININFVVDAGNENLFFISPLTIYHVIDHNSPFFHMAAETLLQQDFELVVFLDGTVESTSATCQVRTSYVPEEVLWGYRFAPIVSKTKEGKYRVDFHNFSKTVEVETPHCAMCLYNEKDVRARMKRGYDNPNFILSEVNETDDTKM", "assay": "ROMK inhibition by analog compounds, SAR follow-up, cell-based, thallium flux, analog library (AID 435017)", "assay_type": "functional"}}, "note": "Calls of active or inactive are those of the source.", "data": [{"smiles": "CN(C)c1ccc(NC2=C(Cl)C(=O)c3ccccc3C2=O)cc1", "values": [{"measurement": "IC50", "setting": "Galanin receptor type 2", "value": "8.84 µM (active)"}, {"measurement": "EC50", "setting": "[1]", "value": "6.29 µM (active)"}, {"measurement": "EC50", "setting": "[2]", "value": "3.94 µM (active)"}, {"measurement": "IC50", "setting": "[3]", "value": "> 50 µM (not active)"}, {"measurement": "IC50", "setting": "Nonstructural protein 1", "value": "7.36 µM (active)"}, {"measurement": "CC50", "setting": "Vero", "value": "32.2 µM (active)"}, {"measurement": "CC50", "setting": "[4]", "value": "16.1 µM (active)"}, {"measurement": "IC50", "setting": "[5]", "value": "122 µM (active)"}, {"measurement": "AC50", "setting": "[6]", "value": "5.02 µM (active)"}]}, {"smiles": "CCOC(=O)/C(C#N)=C/c1c2ccccc2cc2ccccc12", "values": [{"measurement": "IC50", "setting": "[7]", "value": "> 50 µM (not active)"}, {"measurement": "IC50", "setting": "[8]", "value": "> 50 µM (not active)"}]}, {"smiles": "N=c1n(Cc2ccc(Cl)cc2)c2ccccc2n1CC(O)c1ccco1", "note": "(stereo not given)", "values": [{"measurement": "IC50", "setting": "[9]", "value": "> 35 µM (not active)"}, {"measurement": "IC50", "setting": "[10]", "value": "> 35 µM (not active)"}]}, {"smiles": "CCOc1ccc2nc(NC(=O)C(CCSC)NS(=O)(=O)c3cccs3)sc2c1", "note": "(stereo not given)", "values": [{"measurement": "IC50", "setting": "cells", "value": "2.48 µM (active)"}]}, {"smiles": "O=[N+]([O-])c1ccc(CN2CCOCCOCCN(Cc3ccc([N+](=O)[O-])cc3)CCOCC2)cc1", "values": [{"measurement": "IC50", "setting": "[11]", "value": "0.273 µM (active)"}]}]}
